In patent US9423343B2, “Membrane potential change detection device and membrane potential change detection method” (HAMAMATSU PHOTONICS K.K., priority 2010, dated 2016):

System: CHO cells
Assay: Reflection interference measurement of membrane potential change (depolarization) after KCl dispensation, Measurement Example 1
Format: cell-based, Chinese hamster
Details: for change rate of average luminosity at the peak: peak slightly over five minutes, FIG. 11
Description: The functions and operation of the processing unit 20 will be described further referring to the flowchart of FIG. 7. First, the reflection interference image of adhesion faces of cells 101 is obtained by the reflection interference detection camera 110 (step S101, corresponding to “reflection interference imaging step” in the scope of claims). The amplitude of interfering light differs according to the distance of each cell 101 adhering onto the substrate as the bottom surface of the vessel 102 from the substrate as the bottom surface of the vessel 102, and the reflection interference image is taken as a contrast of bright and dark patterns. Next, correction is made for shading of reflected light in the field of the reflection interference image. In addition, an offset correction for background part is carried out in each time unit, so as to prevent temporal variation in value of the background without the cells 101. Through these image arithmetic corrections, we can obtain the reflection interference image with little spatial and temporal variation.
The reflection interference detection camera 110 acquires reflection interference images, for example, at intervals of one second. The intervals of acquisition of reflection interference images are preferably suitably controlled according to a rate of change of membrane potential of the cells 101. After a fixed time from a start of acquisition of image by the reflection interference detection camera 110, a chemical dispensing operation of the dispenser 117 is performed to dispense an intended chemical in an intended concentration to the solution in which the cells 101 are immersed.
The analysis unit 202 calculates a parameter about adhesion between each cell 101 and the transparent member 102a using the reflection interference images obtained intermittently in this manner (step S102, corresponding to “analysis step” in the scope of claims). In the present embodiment, the analysis unit calculates a “change rate of average luminosity” as the parameter to evaluate the change of membrane potential of cell 101 (corresponding to “parameter about adhesion” in the scope of claims).
When the image reception unit 201 receives the reflection interference images sequentially output from the reflection interference detection camera 110, the analysis unit 202 calculates the average luminosity I(t) of the measurement region in each of the reflection interference images and calculates a change rate dI relative to an average luminosity of the measurement region acquired in advance before chemical dispensation (which will be referred to hereinafter as average luminosity I(base) as a base”) (step S103, corresponding to “analysis step” in the scope of claims). […] The change rate dI is calculated by the formula below. […]
The analysis unit 202 detects a change of membrane potential of the cells 101 on the basis of the change rate dI calculated by the above formula. Namely, when a predetermined change rate dI is calculated, the analysis unit 202 makes such a valuation that there is some change detected in membrane potential in the cells 101. The analysis unit 202 may output a plot along time axis of the change rate dI (%) relative to the average luminosity before chemical dispensation calculated by the above formula, e.g., graphs as shown in (A) of FIGS. 8 and (B) of FIG. 8. […]

## [Cl-].[K+] [KCl, potassium chloride]
KCl concentration 6.25 mM
  change rate of average luminosity at the peak: +8%
KCl concentration 25 mM
  change rate of average luminosity at the peak: +35%
KCl concentration 50 mM
  change rate of average luminosity at the peak: +55%
KCl concentration 100 mM
  change rate of average luminosity at the peak: +95%
Image at 5 minutes after dispensation, FIG. 9
  change of reflection interference image after dispensation: the CHO cells departed from the transparent member on which the cells were laid, to make the reflection interference image brighter
